The results in this text go back to ChEMBL document CHEMBL1134984, “Anticancer activity for 4,4'-dihydroxybenzophenone-2,4-dinitrophenylhydrazone (A-007) analogues and their abilities to interact with lymphoendothelial cell surface markers” (Bioorg Med Chem Lett, 2002).

Converted amounts (≈) assume the structure as drawn. The source made the active and inactive calls. The rule behind the calls is not given here.

The test system of one assay is T-cell. Put plainly: Cytotoxicity in HH T-lymphocytic leukemia cells. As to conditions: Homo sapiens. Format: functional, cell-based.
Assay [1] concerns HH-leukemic. Put plainly: Binding Intensity against CD11C+ HH-leukemic cells at 5 ug/mL. Format: cell-based. As to conditions: Homo sapiens.
Assay [2] has as its target T1, Receptor-type tyrosine-protein phosphatase C (Homo sapiens) (UniProt P08575).
T1 sequence (whole entry): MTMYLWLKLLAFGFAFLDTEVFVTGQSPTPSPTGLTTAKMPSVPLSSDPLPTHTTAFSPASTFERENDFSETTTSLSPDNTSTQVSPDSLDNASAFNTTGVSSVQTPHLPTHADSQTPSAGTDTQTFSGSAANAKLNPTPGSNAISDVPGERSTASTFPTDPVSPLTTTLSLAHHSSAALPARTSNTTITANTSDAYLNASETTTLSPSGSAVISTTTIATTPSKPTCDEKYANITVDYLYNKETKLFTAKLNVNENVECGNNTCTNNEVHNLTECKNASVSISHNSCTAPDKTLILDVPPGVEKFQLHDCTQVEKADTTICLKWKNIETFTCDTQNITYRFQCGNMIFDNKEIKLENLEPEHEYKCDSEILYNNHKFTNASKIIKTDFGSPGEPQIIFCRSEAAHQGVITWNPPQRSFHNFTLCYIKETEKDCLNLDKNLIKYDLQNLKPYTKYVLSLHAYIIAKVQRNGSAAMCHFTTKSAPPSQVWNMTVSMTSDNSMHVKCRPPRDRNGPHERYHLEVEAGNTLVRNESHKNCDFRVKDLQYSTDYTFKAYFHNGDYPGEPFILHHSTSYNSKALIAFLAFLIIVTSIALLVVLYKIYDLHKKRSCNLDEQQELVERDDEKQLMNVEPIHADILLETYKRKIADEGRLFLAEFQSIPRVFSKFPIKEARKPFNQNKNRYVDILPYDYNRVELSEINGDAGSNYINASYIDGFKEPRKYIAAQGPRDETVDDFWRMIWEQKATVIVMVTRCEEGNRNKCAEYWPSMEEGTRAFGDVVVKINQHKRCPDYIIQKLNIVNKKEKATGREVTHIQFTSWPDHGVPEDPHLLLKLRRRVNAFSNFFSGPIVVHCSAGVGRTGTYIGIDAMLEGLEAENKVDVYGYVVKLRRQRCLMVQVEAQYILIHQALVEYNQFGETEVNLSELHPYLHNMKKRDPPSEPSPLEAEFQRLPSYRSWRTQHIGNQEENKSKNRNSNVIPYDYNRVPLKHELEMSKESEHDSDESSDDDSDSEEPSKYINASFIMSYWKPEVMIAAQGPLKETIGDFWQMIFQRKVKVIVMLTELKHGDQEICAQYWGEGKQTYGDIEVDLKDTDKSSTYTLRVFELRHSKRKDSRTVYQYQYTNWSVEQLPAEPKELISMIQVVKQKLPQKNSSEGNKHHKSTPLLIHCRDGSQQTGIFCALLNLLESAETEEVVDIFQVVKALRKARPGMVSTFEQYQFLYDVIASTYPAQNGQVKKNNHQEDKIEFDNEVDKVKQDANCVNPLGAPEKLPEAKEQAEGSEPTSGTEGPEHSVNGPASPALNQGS
Put plainly: Binding Intensity was determined against CD45+ HH-leukemic cells at 5 ug/mL; No change. Format: cell-based.

Assay [3] concerns the target T-cell surface glycoprotein CD4 (Homo sapiens) (UniProt P01730). Briefly: Binding Intensity against CD4+ HH-leukemic cells at 5 ug/mL. Type of assay: cell-based.
For assay [4], the target named is T1, Receptor-type tyrosine-protein phosphatase C (Homo sapiens). Briefly: Binding Intensity against CD45+ HH-leukemic cells at 5 ug/mL. Type of assay: cell-based.
The target of assay [5] is T-cell surface glycoprotein CD4 (Homo sapiens) (UniProt P01730). Briefly: Binding Intensity against CD4+ HH-leukemic cells at 5 ug/mL. Type of assay: cell-based.
For assay [6], the system named is HH-leukemic. Briefly: Binding Intensity against CD11C+ HH-leukemic cells at 5 ug/mL. Type of assay: cell-based. Conditions: Homo sapiens.

As for `O=C(O)CC/N=C/C1C(=O)NC(=O)NC1=O`, the IC50 with T-cell is above 12 µg/mL. Also, the Binding intensity result (in the assay with HH-leukemic [1]; in assay [3]) was “No change” throughout. Also, the Binding intensity result in assay [2] is “inactive”.

Take `O=C1NC(=O)C(/C=N\Nc2ccc([N+](=O)[O-])cc2)C(=O)N1`: the 50% inhibitory concentration (IC50) in the assay on T-cell is above 6 µg/mL. Moreover, the Binding intensity entry (in the assay with HH-leukemic [1]; in assay [3]) was “No change” in each case. In assay [2], the Binding intensity entry was “inactive”.

In the assay with T-cell, `O=C(O)CCC/N=C(\c1ccccc1)C1C(=O)NC(=O)NC1=O` displayed an IC50 above 10 µg/mL. For the same molecule, the Binding intensity entry (in the assay on HH-leukemic [1]; in assay [3]) was “No change” each time. In addition, the Binding intensity result in assay [2] was “inactive”.

In the assay with T-cell, `CN1C(=O)C(/C=N\Nc2ccc([N+](=O)[O-])cc2[N+](=O)[O-])C(=O)N(C)C1=O` returned an IC50 above 8 µg/mL.

On to `C/C(=N/Nc1ccc([N+](=O)[O-])cc1[N+](=O)[O-])C1C(=O)N(C)C(=O)N(C)C1=O`, for which the midpoint of inhibition with T-cell, the IC50, lay at 10 µg/mL (≈ 26.4 µM). Besides, the Binding intensity entry with HH-leukemic [1] was “No change”.

Molecule `CS(=O)(=O)Oc1ccc(C(=NNc2ccc([N+](=O)[O-])cc2[N+](=O)[O-])c2ccc(OS(C)(=O)=O)cc2)cc1` showed an IC50 in the assay with T-cell above 10 µg/mL. Besides, the Binding intensity result (with HH-leukemic [1]; in assay [3]) was “No change” each time. Besides, in assay [2], the Binding intensity result was “inactive”.

For `O=[N+]([O-])c1ccc(NN=C(c2ccc(OP(=O)(O)O)cc2)c2ccc(OP(=O)(O)O)cc2)c([N+](=O)[O-])c1`, in the assay with T-cell, the concentration for half-maximal inhibition (IC50) is above 10 µg/mL. The Binding intensity entry (with HH-leukemic [1]; in assay [3]) was “No change” each time. In addition, in assay [2], the Binding intensity result is “inactive”.

In the assay on T-cell, `C/C(=N/Nc1ccc([N+](=O)[O-])cc1)C1C(=O)NC(=O)NC1=O` registered an IC50 above 10 µg/mL. In addition, the Binding intensity result (in the assay with HH-leukemic [1]; in assay [3]) was “No change” each time. Besides, the Binding intensity entry in assay [2] was “inactive”.

Turning to `O=C1NC(=O)C(C(c2ccnc3ccccc23)C2C(=O)NC(=O)NC2=O)C(=O)N1`, the IC50 in the assay on T-cell is above 10 µg/mL. Moreover, the Binding intensity entry was “No change” in the assay with HH-leukemic [1], “No change” in assay [3] and 25% in assay [4].

For `COc1ccc(C(=NNc2ccc([N+](=O)[O-])cc2[N+](=O)[O-])c2ccc(OC)cc2)cc1`, the Binding intensity (in assay [5]; with HH-leukemic [6]) was 25% throughout. Further, the IC50 in the assay on T-cell was above 10 µg/mL. In assay [2], the Binding intensity entry was “inactive”.

Molecule `O=C1NC(=O)C(/C(=N\Nc2ccc([N+](=O)[O-])cc2[N+](=O)[O-])c2ccccc2)C(=O)N1` displayed an IC50 in the assay on T-cell above 10 µg/mL. Moreover, the Binding intensity entry (with HH-leukemic [1]; in assay [3]) was “No change” in each case. Besides, the Binding intensity result in assay [2] was “inactive”.

`CN1C(=O)C(C(c2ccnc3ccccc23)C2C(=O)N(C)C(=O)N(C)C2=O)C(=O)N(C)C1=O`: in the assay with T-cell, the IC50 was above 10 µg/mL.

Consider `O=[N+]([O-])c1ccc(NN=C(c2ccc(O)cc2)c2ccc(O)cc2)c([N+](=O)[O-])c1` [SIVIFENE], for which the IC50 in the assay with T-cell amounted to 3.2 µg/mL (≈ 8.11 µM). For the same molecule, the figures for the Binding intensity (with HH-leukemic [6]; in assay [3]; in assay [4]) were 20%, “No change” and 50%, respectively.

For `O=C1NC(=O)C(/C(=N\Nc2ccc([N+](=O)[O-])cc2[N+](=O)[O-])c2ccc(O)cc2)C(=O)N1`, in the assay with T-cell, the IC50 is above 10 µg/mL. Further, the Binding intensity entry (in the assay on HH-leukemic [1]; in assay [3]) was “No change” throughout. Besides, in assay [2], the Binding intensity result was “inactive”.

In turn, `CN1C(=O)C(C2(C3C(=O)N(C)C(=O)N(C)C3=O)C(=O)Nc3ccccc32)C(=O)N(C)C1=O` showed an IC50 with T-cell above 10 µg/mL. Moreover, the Binding intensity entry (in the assay on HH-leukemic [1]; in assay [3]) was “No change” each time. Also, in assay [2], the Binding intensity entry was “inactive”.

With `O=[N+]([O-])c1ccccc1NN=C(c1ccc(O)cc1)c1ccc(O)cc1`, the concentration for half-maximal inhibition (IC50) in the assay on T-cell stood at 2.7 µg/mL (≈ 7.73 µM). Further, the Binding intensity entry (in the assay with HH-leukemic [1]; in assay [3]) was “No change” each time. In addition, the Binding intensity entry in assay [2] was “inactive”.

In turn, `C/C(=N\Nc1ccc([N+](=O)[O-])cc1)c1ccc(O)cc1` returned an IC50 in the assay on T-cell of 4.1 µg/mL (≈ 15.1 µM). In addition, the Binding intensity result in assay [2] is “inactive”.

With `Nc1ccc(C(=NNc2ccc([N+](=O)[O-])cc2[N+](=O)[O-])c2ccc(N)cc2)cc1`, 5 µg/mL (≈ 12.7 µM) corresponded to half-maximal inhibition in the assay with T-cell (IC50). Also, the Binding intensity entry in the assay with HH-leukemic [1] was “No change”; in assay [3] it was “No change”; in assay [4], 25%.

In turn, `O=[N+]([O-])c1cc([N+](=O)[O-])c(NN=C(c2ccc(O)cc2)c2ccc(O)cc2)cc1Cl` showed an IC50 in the assay on T-cell of 1.5 µg/mL (≈ 3.5 µM). In addition, the Binding intensity entry (in the assay on HH-leukemic [1]; in assay [3]) was “No change” throughout. Also, in assay [2], the Binding intensity entry is “inactive”.

Consider `O=[N+]([O-])c1ccc(NN=C(c2ccc(NS(=O)(=O)c3ccccc3)cc2)c2ccc(NS(=O)(=O)c3ccccc3)cc2)c([N+](=O)[O-])c1`, for which, in the assay with T-cell, half-maximal inhibition (IC50) required 6 µg/mL (≈ 8.92 µM).

`C/C(=N/Nc1ccc([N+](=O)[O-])cc1[N+](=O)[O-])C1C(=O)NC(=O)NC1=O` had an IC50 in the assay with T-cell of 3.5 µg/mL (≈ 9.99 µM). The Binding intensity result (in the assay on HH-leukemic [1]; in assay [3]) was “No change” throughout. Besides, the Binding intensity entry in assay [2] was “inactive”.

Turning to `O=[N+]([O-])c1ccc(N/N=C/c2ccc(O)cc2)cc1`, half-maximal inhibition with T-cell (IC50) was put at 5 µg/mL (≈ 19.4 µM). Moreover, the Binding intensity result in assay [2] was “inactive”.

As to `O=[N+]([O-])c1ccc(NN=C(c2ccccc2)c2ccccc2)c([N+](=O)[O-])c1`, the IC50 in the assay with T-cell was above 10 µg/mL. Besides, the Binding intensity result (with HH-leukemic [1]; in assay [3]) was “No change” throughout. Moreover, the Binding intensity entry in assay [2] was “inactive”.

`O=C1NC(=O)C(C(c2cccnc2)C2C(=O)NC(=O)NC2=O)C(=O)N1` gave an IC50 in the assay on T-cell above 10 µg/mL.

`O=C1NC(=O)C(C2(C3C(=O)NC(=O)NC3=O)C(=O)Nc3ccccc32)C(=O)N1` had an IC50 with T-cell above 10 µg/mL. Also, the Binding intensity result (with HH-leukemic [1]; in assay [3]) was “No change” each time. Also, the Binding intensity result in assay [2] is “inactive”.

Molecule `Cl.O=C1N=C2C(=Nc3ccccc32)N1c1ccc(O)cc1` came in with a half-inhibitory concentration (IC50) in the assay on T-cell above 10 µg/mL. For the same molecule, the Binding intensity result (in the assay with HH-leukemic [1]; in assay [3]) was “No change” each time. Besides, the Binding intensity entry in assay [2] is “inactive”.

Turning to `O=C(O)CCCCC/N=C/C1C(=O)NC(=O)NC1=O`, the IC50 in the assay on T-cell was above 10 µg/mL. Moreover, the Binding intensity entry (in the assay on HH-leukemic [1]; in assay [3]) was “No change” in each case. Besides, the Binding intensity entry in assay [2] is “inactive”.

In the assay on T-cell, `O=C(O)CCC/N=C/C1C(=O)NC(=O)NC1=O` returned an IC50 of 3.5 µg/mL (≈ 14.5 µM). Moreover, the Binding intensity result was “No change” in the assay on HH-leukemic [1], “No change” in assay [3] and 25% in assay [4].
